Reference: PubChem BioAssay (NCI)
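Tested at 5 concentrations; 48 h exposure; 96-well plates; endpoints linearly interpolated, else capped at highest concentration. TGI: concentration producing complete growth inhibition.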

How the values were obtained:
Assay in all cases: NCI anticancer screen, dose series, 48 h
HCT-15 colon = system: HCT-15 colon
SR leukemia = system: SR leukemia
HL-60(TB) leukemia = system: HL-60(TB) leukemia
HS 578T breast = system: HS 578T breast
MDA-MB-231 breast = system: MDA-MB-231 breast
PC-3 prostate = system: PC-3 prostate
T-47D breast = system: T-47D breast
HOP-62 NSCLC = system: HOP-62 NSCLC
CCRF-CEM leukemia = system: CCRF-CEM leukemia
NCI-H460 lung = system: NCI-H460 lung
SF-268 CNS = system: SF-268 CNS
UACC-257 melanoma = system: UACC-257 melanoma
HCC-2998 colon = system: HCC-2998 colon
SNB-19 CNS = system: SNB-19 CNS
SN12C renal = system: SN12C renal
MDA-N = system: MDA-N
SK-MEL-5 melanoma = system: SK-MEL-5 melanoma
SK-OV-3 ovarian = system: SK-OV-3 ovarian
TK-10 renal = system: TK-10 renal
U251 CNS = system: U251 CNS
NCI-H522 lung = system: NCI-H522 lung
IGROV1 ovarian = system: IGROV1 ovarian
CAKI-1 renal = system: CAKI-1 renal
UO-31 renal = system: UO-31 renal
NCI/ADR-RES ovarian = system: NCI/ADR-RES ovarian
HT29 colon = system: HT29 colon
SW-620 colon = system: SW-620 colon
MCF7 breast = system: MCF7 breast
NCI-H23 lung = system: NCI-H23 lung
A549 NSCLC = system: A549 NSCLC
OVCAR-4 ovarian = system: OVCAR-4 ovarian
K-562 leukemia = system: K-562 leukemia
MALME-3M melanoma = system: MALME-3M melanoma
BT-549 breast = system: BT-549 breast
DU-145 prostate = system: DU-145 prostate
786-0 renal = system: 786-0 renal
OVCAR-3 ovarian = system: OVCAR-3 ovarian
SF-539 CNS = system: SF-539 CNS
OVCAR-5 ovarian = system: OVCAR-5 ovarian
SK-MEL-2 melanoma = system: SK-MEL-2 melanoma
SK-MEL-28 melanoma = system: SK-MEL-28 melanoma
COLO 205 colon = system: COLO 205 colon
OVCAR-8 ovarian = system: OVCAR-8 ovarian
EKVX NSCLC = system: EKVX NSCLC
HCT-116 colon = system: HCT-116 colon
SF-295 CNS = system: SF-295 CNS
MOLT-4 leukemia = system: MOLT-4 leukemia
SNB-75 CNS = system: SNB-75 CNS
KM12 colon = system: KM12 colon
A498 renal = system: A498 renal
NCI-H226 lung = system: NCI-H226 lung
UACC-62 melanoma = system: UACC-62 melanoma
ACHN renal = system: ACHN renal
M14 melanoma = system: M14 melanoma
RPMI-8226 leukemia = system: RPMI-8226 leukemia
MDA-MB-435 = system: MDA-MB-435
LOX IMVI melanoma = system: LOX IMVI melanoma
RXF 393 renal = system: RXF 393 renal
HOP-92 NSCLC = system: HOP-92 NSCLC

SMILES: O=NNc1nc(-c2ccccn2)nc2ccccc12
- TGI (HCT-15 colon): 14.7 µM
- TGI (SR leukemia): > 100 µM
- TGI (HL-60(TB) leukemia): > 100 µM
- TGI (HS 578T breast): > 100 µM
- TGI (MDA-MB-231 breast): > 100 µM
- TGI (PC-3 prostate): > 100 µM
- TGI (T-47D breast): > 100 µM
- TGI (HOP-62 NSCLC): 48.1 µM
- TGI (CCRF-CEM leukemia): 15.4 µM
- TGI (NCI-H460 lung): > 100 µM
- TGI (SF-268 CNS): > 100 µM
- TGI (UACC-257 melanoma): > 100 µM
- TGI (HCC-2998 colon): 41 µM
- TGI (SNB-19 CNS): > 100 µM
- TGI (SN12C renal): > 100 µM
- TGI (MDA-N): > 100 µM
- TGI (SK-MEL-5 melanoma): > 100 µM
- TGI (SK-OV-3 ovarian): > 100 µM
- TGI (TK-10 renal): > 100 µM
- TGI (U251 CNS): > 100 µM
- TGI (NCI-H522 lung): 9.21 µM
- TGI (IGROV1 ovarian): > 100 µM
- TGI (CAKI-1 renal): > 100 µM
- TGI (UO-31 renal): > 100 µM
- TGI (NCI/ADR-RES ovarian): 63.5 µM
- TGI (HT29 colon): 18.7 µM
- TGI (SW-620 colon): 27.7 µM
- TGI (MCF7 breast): > 100 µM
- TGI (NCI-H23 lung): > 100 µM
- TGI (A549 NSCLC): > 100 µM
- TGI (OVCAR-4 ovarian): > 100 µM
- TGI (K-562 leukemia): > 100 µM
- TGI (MALME-3M melanoma): 19.6 µM
- TGI (BT-549 breast): > 100 µM
- TGI (DU-145 prostate): > 100 µM
- TGI (786-0 renal): 39.9 µM
- TGI (OVCAR-3 ovarian): > 100 µM
- TGI (SF-539 CNS): > 100 µM
- TGI (OVCAR-5 ovarian): > 100 µM
- TGI (SK-MEL-2 melanoma): 39.5 µM
- TGI (SK-MEL-28 melanoma): > 100 µM
- TGI (COLO 205 colon): > 100 µM
- TGI (OVCAR-8 ovarian): > 100 µM
- TGI (EKVX NSCLC): > 100 µM
- TGI (HCT-116 colon): 16.5 µM
- TGI (SF-295 CNS): > 100 µM
- TGI (MOLT-4 leukemia): > 100 µM
- TGI (SNB-75 CNS): > 100 µM
- TGI (KM12 colon): > 100 µM
- TGI (A498 renal): > 100 µM
- TGI (NCI-H226 lung): 62.5 µM
- TGI (UACC-62 melanoma): 65 µM
- TGI (ACHN renal): 42.5 µM
- TGI (M14 melanoma): 22 µM

SMILES: CCc1n[nH]c(=O)n1-c1ccncc1
- TGI (HCT-15 colon): > 100 µM
- TGI (SR leukemia): > 100 µM
- TGI (HL-60(TB) leukemia): > 100 µM
- TGI (RPMI-8226 leukemia): > 100 µM
- TGI (HS 578T breast): > 100 µM
- TGI (MDA-MB-231 breast): > 100 µM
- TGI (PC-3 prostate): > 100 µM
- TGI (T-47D breast): > 100 µM
- TGI (HOP-62 NSCLC): > 100 µM
- TGI (CCRF-CEM leukemia): > 100 µM
- TGI (NCI-H460 lung): > 100 µM
- TGI (SF-268 CNS): > 100 µM
- TGI (UACC-257 melanoma): > 100 µM
- TGI (HCC-2998 colon): > 100 µM
- TGI (SNB-19 CNS): > 100 µM
- TGI (SN12C renal): > 100 µM
- TGI (MDA-N): > 100 µM
- TGI (SK-MEL-5 melanoma): > 100 µM
- TGI (TK-10 renal): > 100 µM
- TGI (U251 CNS): > 100 µM
- TGI (NCI-H522 lung): > 100 µM
- TGI (IGROV1 ovarian): > 100 µM
- TGI (CAKI-1 renal): > 100 µM
- TGI (UO-31 renal): > 100 µM
- TGI (NCI/ADR-RES ovarian): > 100 µM
- TGI (HT29 colon): > 100 µM
- TGI (SW-620 colon): > 100 µM
- TGI (MCF7 breast): > 100 µM
- TGI (MDA-MB-435): > 100 µM
- TGI (NCI-H23 lung): > 100 µM
- TGI (A549 NSCLC): > 100 µM
- TGI (OVCAR-4 ovarian): > 100 µM
- TGI (K-562 leukemia): > 100 µM
- TGI (MALME-3M melanoma): > 100 µM
- TGI (BT-549 breast): > 100 µM
- TGI (DU-145 prostate): > 100 µM
- TGI (786-0 renal): > 100 µM
- TGI (OVCAR-3 ovarian): > 100 µM
- TGI (SF-539 CNS): > 100 µM
- TGI (OVCAR-5 ovarian): > 100 µM
- TGI (SK-MEL-28 melanoma): > 100 µM
- TGI (COLO 205 colon): > 100 µM
- TGI (OVCAR-8 ovarian): > 100 µM
- TGI (EKVX NSCLC): > 100 µM
- TGI (HCT-116 colon): > 100 µM
- TGI (SF-295 CNS): > 100 µM
- TGI (MOLT-4 leukemia): > 100 µM
- TGI (LOX IMVI melanoma): > 100 µM
- TGI (SNB-75 CNS): > 100 µM
- TGI (KM12 colon): > 100 µM
- TGI (RXF 393 renal): > 100 µM
- TGI (A498 renal): > 100 µM
- TGI (NCI-H226 lung): > 100 µM
- TGI (ACHN renal): > 100 µM
- TGI (M14 melanoma): > 100 µM
- TGI (HOP-92 NSCLC): > 100 µM
